{"source": "paper PMC8402917", "about": "(Viruses, 2021)", "target": "T1, SARS-CoV-2 3CLpro (3CL protease, main protease) (Severe acute respiratory syndrome coronavirus 2, UniProt P0DTD1)", "T1 construct": "gene rep", "assay": "biochemical"}
{"compound": "CC1=C(/C=C/C(C)=C/C=C/C(C)=C/C(=O)O)C(C)(C)CCC1", "note": "[all-trans retinoic acid]", "values": [{"measurement": "IC50", "value": "24.7 ± 1.65", "unit": "µM"}]}
